Patent US6403637B1, “Methods of modulating matrix metalloproteinase activity and uses thereof” (priority 1999, dated 2002)

Assays:
UMR 106-01 cells [1] = assay: Competition for 125I collagenase-3 binding in UMR 106-01 cells; design: species or system rat; conditions: for competition efficiency compared to full-length collagenase-3: 125I mouse collagenase-3; for percent of mouse collagenase-3 binding, UMR-106-01: competitor at 200-, 400- and 800-fold excess over 125I mouse collagenase-3, ± S.E.M., seven pooled experiments; for competition for 125I mouse collagenase-3 binding (in words): compared to full-length MMP-13
Protocol: (§1) For all binding experiments, cells were seeded into 2.0 cm^2 wells. After the cells reached approximately 95% confluence, the medium was replaced with fresh medium containing 1 mg/ml BSA and the cells were assayed for binding 4 h later. The cells were first washed with maintenance medium, then incubated in the same medium with 0.01% Tween 80 containing ^125I-rat collagenase-3 or other iodinated ligands at 4° C. for 2 h. Non-specific binding was assessed by adding a 50-100-fold excess of cold ligand to half the wells, while an equivalent volume of buffer was added to the remaining wells. After incubation, the wells were washed three times with ice-cold MEM (0.5 ml). The cells were then lysed with 500 μl of 1 M NaOH and the lysates were counted on a gamma counter. Protein labeling with ^125I was done using the chloramine T method (Greenwood et al., 1963, Biochem. J. 89:114). The proteins had specific activities ranging from 9 to 27 μCi/μg.
(§2) These proteins were used as competitors in a series of binding assays in UMR cells using ^125I mouse collagenase-3. Radioactive labeling and binding assays were performed as in Example 1.

[2] = tested on: MEF-1 mouse embryo fibroblasts; assay: Competition for 125I collagenase-3 binding in MEF-1 cells; conditions: competitor at 200-, 400- and 800-fold excess over 125I mouse collagenase-3; ± S.E.M., triplicate wells
Protocol: as §1
(§3) In order to exclude the possibility that the collagenase-3 receptor is the low density lipoprotein receptor-related protein, two cell lines of mouse embryo fibroblasts were used: wild-type (MEF-1) and low density lipoprotein receptor-related protein-null (MEF-2) (both provided by Dr. Joachim Herz). These cells were cultured in Dulbecco's MEM with 10% FBS, 10 units penicillin/ml, 10 μg streptomycin/ml.
as §2
(§4) This region thus appears to be the high-affinity binding domain recognized by the collagenase-3 receptor, and the other two domains (SEQ ID's NO:1 and 3) may be recognized by the lower-affinity low density lipoprotein receptor-related protein or may alternatively stabilize the interaction with the collagenase-3 receptor. To investigate the contribution of each receptor, two mouse embryo fibroblast (MEF) cell lines were utilized. The MEF-1 cell line is known to express both the collagenase-3 receptor and the low density lipoprotein receptor-related protein, while the MEF-2 cell line has been rendered low density lipoprotein receptor-related protein-null. […] This hypothesis is confirmed by the data on Table 4.

[3] = tested on: UMR 106-01 rat osteosarcoma cells; assay: Binding of 125I-labeled proteinases to UMR 106-01 cells; conditions: for binding to UMR cells (in words): 125I-labeled protein, direct binding; for Specific binding: 125I-labeled ligand 8 nM, means ± SEM for triplicate wells
[4] = tested on: MEF-2 (LRP null) mouse embryo fibroblasts; assay: Competition for 125I collagenase-3 binding in MEF-2 (LRP null) cells; conditions: for percent of mouse collagenase-3 binding, MEF-2 (LRP null): competitor at 200-, 400- and 800-fold excess over 125I mouse collagenase-3, ± S.E.M., triplicate wells; for competition for receptor binding in MEF-2 cells (in words): compared to MEF-1 cells
Protocol: as §1, §3, §2, §4

UMR 106-01 cells [5] = assay: Internalization assay in UMR 106-01 cells; format: cell-based, rat
Protocol: Although the low density lipoprotein receptor-related protein is not required for rat collagenase-3 binding to the cell, it might be required for ligand internalization. Therefore, internalization assays were performed with ^125I-rat collagenase-3 using MEF-1 and MEF-2 cells as follows. After binding 125I-rat labeled proteins as above, the cells were washed three times with cold modified Eagle's media (0.5 ml) to remove unbound ligand. The cells were then warmed to 37° C. by the addition of prewarmed modified Eagle's media (0.25 ml), and incubated at 37° C. for selected intervals. At each time point, the media were collected, and the cells were washed once with ice-cold MEM, then incubated with 0.25% Pronase®-E in modified Eagle's media for 15 min at 4° C. to strip cell surface proteins. The cell suspension was then centrifuged, and the radioactivity associated with cell pellets (defining internalized ^125I-proteins) was measured at each time point.
It is known that RAP inhibits internalization of ligands by the low density lipoprotein receptor-related protein (Kounnas et al., 1996, J. Biol. Chem 271:6523). Therefore, internalization assays were performed using ^125I-labeled rat collagenase-3 as a ligand and receptor-associated protein as a competitor. Human receptor-associated protein from the pGEX-receptor-associated protein expression vector (provided by Dr. Joachim Herz, University of Texas Southwestern Medical Center, Dallas, Tex.) was expressed in bacteria and prepared as described in Herz et al., 1991, J. Biol. Chem. 266:21232.
To investigate the mechanism by which RAP regulates internalization of collagenase-3, an experiment was performed where excess unlabeled RAP or rat collagenase-3 was prebound to UMR 106-01 cells. Binding and internalization of ^125I-labeled rat collagenase-3 and RAP were then allowed to proceed.

collagenase-3 receptor = biological target: T1, collagenase-3 receptor (Rattus norvegicus, UniProt Q4TU93); assay: Scatchard analysis of 125I-mMMP-13 binding to UMR 106-01 cells, high affinity site
T1 construct: endogenous in cells; host or cells: UMR 106-01 rat osteosarcoma cells
T1 sequence (Q4TU93 31-1480): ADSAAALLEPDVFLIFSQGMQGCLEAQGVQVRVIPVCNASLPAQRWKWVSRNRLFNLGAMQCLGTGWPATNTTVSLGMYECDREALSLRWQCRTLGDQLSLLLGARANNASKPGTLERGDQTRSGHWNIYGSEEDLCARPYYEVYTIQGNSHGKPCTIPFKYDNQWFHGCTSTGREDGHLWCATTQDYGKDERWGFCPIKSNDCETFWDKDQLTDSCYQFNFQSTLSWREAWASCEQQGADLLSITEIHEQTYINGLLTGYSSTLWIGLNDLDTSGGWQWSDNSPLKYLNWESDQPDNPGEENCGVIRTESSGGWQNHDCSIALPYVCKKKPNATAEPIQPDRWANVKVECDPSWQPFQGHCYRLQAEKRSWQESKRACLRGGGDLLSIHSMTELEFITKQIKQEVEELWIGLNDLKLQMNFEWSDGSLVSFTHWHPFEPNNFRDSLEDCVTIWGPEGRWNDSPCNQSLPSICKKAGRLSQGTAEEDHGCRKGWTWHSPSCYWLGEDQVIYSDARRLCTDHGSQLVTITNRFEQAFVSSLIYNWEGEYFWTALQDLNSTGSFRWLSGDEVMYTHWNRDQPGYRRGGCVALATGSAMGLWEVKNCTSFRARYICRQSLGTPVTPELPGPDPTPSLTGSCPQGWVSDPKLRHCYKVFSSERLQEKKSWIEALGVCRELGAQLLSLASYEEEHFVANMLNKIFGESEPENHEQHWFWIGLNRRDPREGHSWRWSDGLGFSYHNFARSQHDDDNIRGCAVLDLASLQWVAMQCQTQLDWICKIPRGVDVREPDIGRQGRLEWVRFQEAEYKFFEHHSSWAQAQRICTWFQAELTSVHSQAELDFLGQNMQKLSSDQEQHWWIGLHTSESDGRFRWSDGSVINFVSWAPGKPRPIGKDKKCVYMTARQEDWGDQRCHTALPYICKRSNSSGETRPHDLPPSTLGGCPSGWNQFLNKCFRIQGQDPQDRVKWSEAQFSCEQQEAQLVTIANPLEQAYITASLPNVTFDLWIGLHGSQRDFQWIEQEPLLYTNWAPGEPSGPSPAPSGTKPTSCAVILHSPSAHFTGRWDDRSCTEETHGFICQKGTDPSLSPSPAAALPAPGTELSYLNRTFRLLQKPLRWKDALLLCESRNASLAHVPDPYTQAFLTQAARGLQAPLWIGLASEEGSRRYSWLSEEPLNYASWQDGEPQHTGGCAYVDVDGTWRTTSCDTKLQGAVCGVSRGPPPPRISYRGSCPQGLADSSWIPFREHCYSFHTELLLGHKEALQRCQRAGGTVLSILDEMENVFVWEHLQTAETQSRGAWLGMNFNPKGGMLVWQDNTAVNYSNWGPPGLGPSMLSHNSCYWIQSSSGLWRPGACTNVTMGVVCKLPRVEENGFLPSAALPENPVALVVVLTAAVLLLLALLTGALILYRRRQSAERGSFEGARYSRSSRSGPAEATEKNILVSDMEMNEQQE
Protocol: as §1
(§5) The recombinant mouse MMP-13 has essentially equivalent catalytic, kinetic, and binding activity as the rat MMP-13 homolog utilized in Example 1.

[6] = biological target: T2, low density lipoprotein receptor-related protein (Rattus norvegicus, UniProt G3V928); assay: Scatchard analysis of 125I-mMMP-13 binding to UMR 106-01 cells, lower affinity site
T2 construct: endogenous in cells; host or cells: UMR 106-01 rat osteosarcoma cells
Protocol: as §1, §5

T2 sequence (G3V928 20-3944 limits assumed): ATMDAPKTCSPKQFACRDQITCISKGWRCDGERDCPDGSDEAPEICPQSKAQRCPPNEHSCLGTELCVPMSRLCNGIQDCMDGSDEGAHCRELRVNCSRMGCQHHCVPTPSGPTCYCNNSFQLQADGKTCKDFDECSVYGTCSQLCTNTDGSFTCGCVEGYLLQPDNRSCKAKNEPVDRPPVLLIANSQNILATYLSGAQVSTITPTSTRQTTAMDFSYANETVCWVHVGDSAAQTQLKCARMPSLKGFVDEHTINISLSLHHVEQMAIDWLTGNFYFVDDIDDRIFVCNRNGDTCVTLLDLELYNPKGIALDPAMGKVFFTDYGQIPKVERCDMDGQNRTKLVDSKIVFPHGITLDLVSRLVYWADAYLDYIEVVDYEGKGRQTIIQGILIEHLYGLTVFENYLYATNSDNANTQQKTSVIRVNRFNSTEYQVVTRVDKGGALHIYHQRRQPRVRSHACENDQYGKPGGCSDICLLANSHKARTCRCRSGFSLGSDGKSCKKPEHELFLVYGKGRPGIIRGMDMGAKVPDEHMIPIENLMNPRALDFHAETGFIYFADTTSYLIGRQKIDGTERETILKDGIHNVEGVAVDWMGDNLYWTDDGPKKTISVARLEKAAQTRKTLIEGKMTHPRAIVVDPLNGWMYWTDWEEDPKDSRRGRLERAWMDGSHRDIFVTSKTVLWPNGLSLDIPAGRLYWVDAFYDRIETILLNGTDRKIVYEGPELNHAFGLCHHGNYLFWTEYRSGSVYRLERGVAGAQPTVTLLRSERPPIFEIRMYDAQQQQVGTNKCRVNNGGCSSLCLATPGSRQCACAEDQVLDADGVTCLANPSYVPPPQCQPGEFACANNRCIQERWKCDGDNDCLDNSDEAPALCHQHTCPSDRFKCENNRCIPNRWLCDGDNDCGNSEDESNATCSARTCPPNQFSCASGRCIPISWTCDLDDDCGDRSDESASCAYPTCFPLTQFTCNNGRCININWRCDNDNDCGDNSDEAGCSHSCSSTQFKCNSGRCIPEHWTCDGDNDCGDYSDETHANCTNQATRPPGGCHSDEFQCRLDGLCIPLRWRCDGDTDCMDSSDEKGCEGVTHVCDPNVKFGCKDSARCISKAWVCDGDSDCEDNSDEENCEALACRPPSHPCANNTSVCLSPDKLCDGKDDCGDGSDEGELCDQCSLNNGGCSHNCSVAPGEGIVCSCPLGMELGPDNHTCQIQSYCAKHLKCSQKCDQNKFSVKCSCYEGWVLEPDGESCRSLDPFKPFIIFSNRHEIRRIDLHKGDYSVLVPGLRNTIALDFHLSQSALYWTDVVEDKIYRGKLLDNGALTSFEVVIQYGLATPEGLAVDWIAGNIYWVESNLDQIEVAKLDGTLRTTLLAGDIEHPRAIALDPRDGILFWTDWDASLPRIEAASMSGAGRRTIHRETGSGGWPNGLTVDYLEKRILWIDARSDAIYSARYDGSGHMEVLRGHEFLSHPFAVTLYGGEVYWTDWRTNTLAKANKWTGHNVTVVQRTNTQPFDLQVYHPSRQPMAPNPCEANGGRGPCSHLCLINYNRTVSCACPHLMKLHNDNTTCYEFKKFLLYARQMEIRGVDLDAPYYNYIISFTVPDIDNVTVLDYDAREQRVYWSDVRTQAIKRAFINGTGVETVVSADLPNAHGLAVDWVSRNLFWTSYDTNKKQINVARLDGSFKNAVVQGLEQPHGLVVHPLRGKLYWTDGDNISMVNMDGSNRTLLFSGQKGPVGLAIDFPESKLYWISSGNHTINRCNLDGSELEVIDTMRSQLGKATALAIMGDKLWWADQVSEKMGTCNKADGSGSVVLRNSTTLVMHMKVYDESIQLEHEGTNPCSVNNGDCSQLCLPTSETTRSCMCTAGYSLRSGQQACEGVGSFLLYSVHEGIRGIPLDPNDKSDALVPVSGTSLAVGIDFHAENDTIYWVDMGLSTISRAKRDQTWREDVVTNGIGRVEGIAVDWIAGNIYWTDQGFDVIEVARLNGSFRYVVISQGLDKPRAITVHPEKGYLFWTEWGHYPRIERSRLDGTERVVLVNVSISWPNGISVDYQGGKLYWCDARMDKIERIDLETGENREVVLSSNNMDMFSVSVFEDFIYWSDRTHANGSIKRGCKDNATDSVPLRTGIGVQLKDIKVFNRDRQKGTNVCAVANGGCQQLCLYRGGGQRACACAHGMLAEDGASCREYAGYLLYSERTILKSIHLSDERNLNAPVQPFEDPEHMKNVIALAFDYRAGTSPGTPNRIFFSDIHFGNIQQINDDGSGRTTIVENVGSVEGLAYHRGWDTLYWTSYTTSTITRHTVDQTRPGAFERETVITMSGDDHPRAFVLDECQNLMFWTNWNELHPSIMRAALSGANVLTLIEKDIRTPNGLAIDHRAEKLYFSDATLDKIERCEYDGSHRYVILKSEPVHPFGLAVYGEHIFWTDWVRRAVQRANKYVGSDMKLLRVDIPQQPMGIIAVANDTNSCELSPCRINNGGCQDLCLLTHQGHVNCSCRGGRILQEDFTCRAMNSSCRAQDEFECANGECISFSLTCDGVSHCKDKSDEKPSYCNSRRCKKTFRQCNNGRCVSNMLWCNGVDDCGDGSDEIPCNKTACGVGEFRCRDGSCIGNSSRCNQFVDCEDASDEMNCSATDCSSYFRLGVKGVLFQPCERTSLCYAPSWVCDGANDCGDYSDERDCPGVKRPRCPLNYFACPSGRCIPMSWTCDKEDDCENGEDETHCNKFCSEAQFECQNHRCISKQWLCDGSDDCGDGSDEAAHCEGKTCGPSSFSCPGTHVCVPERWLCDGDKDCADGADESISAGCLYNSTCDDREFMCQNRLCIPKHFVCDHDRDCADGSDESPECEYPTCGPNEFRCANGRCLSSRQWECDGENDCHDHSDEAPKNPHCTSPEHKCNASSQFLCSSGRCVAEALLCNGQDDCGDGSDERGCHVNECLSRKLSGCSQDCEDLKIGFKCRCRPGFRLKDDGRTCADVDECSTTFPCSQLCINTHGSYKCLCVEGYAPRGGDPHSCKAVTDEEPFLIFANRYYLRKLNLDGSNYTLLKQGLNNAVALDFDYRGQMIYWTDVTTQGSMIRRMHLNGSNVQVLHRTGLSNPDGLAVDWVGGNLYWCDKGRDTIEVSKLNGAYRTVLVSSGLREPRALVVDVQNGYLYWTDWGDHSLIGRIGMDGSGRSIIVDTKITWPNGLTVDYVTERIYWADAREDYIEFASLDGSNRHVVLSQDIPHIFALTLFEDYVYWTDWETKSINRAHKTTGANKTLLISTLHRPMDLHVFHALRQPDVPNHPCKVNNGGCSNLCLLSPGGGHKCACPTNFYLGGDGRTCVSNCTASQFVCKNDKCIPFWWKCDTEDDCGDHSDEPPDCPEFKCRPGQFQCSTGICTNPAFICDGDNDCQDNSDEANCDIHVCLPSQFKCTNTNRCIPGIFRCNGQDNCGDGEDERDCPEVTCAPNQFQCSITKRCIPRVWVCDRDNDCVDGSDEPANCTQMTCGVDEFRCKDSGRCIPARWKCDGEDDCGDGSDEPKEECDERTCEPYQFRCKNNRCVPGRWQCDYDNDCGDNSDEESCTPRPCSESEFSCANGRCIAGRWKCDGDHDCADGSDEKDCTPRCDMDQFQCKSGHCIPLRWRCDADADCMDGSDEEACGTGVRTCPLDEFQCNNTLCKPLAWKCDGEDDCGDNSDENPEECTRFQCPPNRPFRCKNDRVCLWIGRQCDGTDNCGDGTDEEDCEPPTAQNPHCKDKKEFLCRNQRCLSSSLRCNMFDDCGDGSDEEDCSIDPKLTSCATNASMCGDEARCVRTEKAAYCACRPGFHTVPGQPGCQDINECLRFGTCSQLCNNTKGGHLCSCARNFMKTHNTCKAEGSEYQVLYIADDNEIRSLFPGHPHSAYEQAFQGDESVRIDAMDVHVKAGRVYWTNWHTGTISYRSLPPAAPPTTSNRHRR
T2 sequence (G3V928 3945-4545 partner limits assumed): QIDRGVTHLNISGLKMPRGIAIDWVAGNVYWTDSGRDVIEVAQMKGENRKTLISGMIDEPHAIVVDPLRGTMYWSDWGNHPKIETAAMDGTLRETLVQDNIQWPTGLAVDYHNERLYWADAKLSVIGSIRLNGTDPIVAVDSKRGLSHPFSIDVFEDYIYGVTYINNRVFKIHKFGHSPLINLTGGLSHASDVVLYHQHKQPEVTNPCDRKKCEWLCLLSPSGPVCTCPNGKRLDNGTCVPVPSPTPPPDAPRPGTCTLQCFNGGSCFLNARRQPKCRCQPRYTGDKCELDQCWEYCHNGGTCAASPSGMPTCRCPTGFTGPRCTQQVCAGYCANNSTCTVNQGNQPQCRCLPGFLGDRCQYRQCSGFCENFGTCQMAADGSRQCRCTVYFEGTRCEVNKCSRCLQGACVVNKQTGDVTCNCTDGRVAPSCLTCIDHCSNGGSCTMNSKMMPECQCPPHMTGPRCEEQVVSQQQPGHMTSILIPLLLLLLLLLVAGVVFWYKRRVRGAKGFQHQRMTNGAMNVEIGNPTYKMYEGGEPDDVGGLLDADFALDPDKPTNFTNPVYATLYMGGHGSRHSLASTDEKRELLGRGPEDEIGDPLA

Substance	competition efficiency compared to full-length collagenase-3 (UMR 106-01 cells [1])	percent of mouse collagenase-3 binding, UMR-106-01 (UMR 106-01 cells [1]) [%]	percent of mouse collagenase-3 binding, MEF 1 [2] [%]	binding to UMR cells (in words) [3]	percent of mouse collagenase-3 binding, MEF-2 (LRP null) [4] [%]	also measured
H/M (229-472): chimeric collagenase: human MMP-1 N-terminus, mouse MMP-13 residues 229-472	< 17%	16.5 ± 5.8	2.2 ± 1.1			
HM (141-228)/H: chimeric collagenase: mouse MMP-13 residues 141-228 in human MMP-1	90%	89.9 ± 5.3	94.3 ± 4.7	capable of binding specifically to UMR cells	75.1 ± 13.7	endocytosis of iodinated construct compared to full-length collagenase-3 (in words) (UMR 106-01 cells [5]): significantly reduced endocytosis
HM (166-228)/H: chimeric collagenase: mouse MMP-13 residues 166-228 in human MMP-1		67.8 ± 3.4	80.8 ± 6.0		97.2 ± 1.7	competition for 125I mouse collagenase-3 binding (in words) (UMR 106-01 cells [1]): impaired ability to compete for receptor binding
HM/M (141-472): chimeric collagenase: human MMP-1 N-terminus, mouse MMP-13 residues 141-472		95.7 ± 3.9	84.4 ± 6.1			competition for receptor binding in MEF-2 cells (in words) [4]: significantly impaired ability to compete for receptor binding
Human MMP-1: human fibroblast collagenase-1 (interstitial collagenase)		0				Specific binding [3]: 0.1 ± 1.4 fmol/2.6 × 10^5 cells
Human MMP-3: human stromelysin-1 (MMP-3)						Specific binding [3]: 0.0 ± 0.0 fmol/2.6 × 10^5 cells
M (1-228)/H: chimeric collagenase: mouse MMP-13 residues 1-228, remainder human MMP-1	greater than 90%	85.3 ± 3.0	85.9 ± 10.5	capable of binding specifically to UMR cells	41.9 ± 9.7	competition for receptor binding in MEF-2 cells (in words) [4]: impaired binding in MEF-2 cells; endocytosis of iodinated construct compared to full-length collagenase-3 (in words) (UMR 106-01 cells [5]): significantly reduced endocytosis
MMP-13 (1-265): C-terminally truncated mouse collagenase-3		100	100			competition for 125I mouse collagenase-3 binding (in words) (UMR 106-01 cells [1]): essentially equivalent manner compared to full-length MMP-13
MMP-13 (1-472): recombinant full-length mouse collagenase-3, residues 1-472				binds equally as well as the rat enzyme		binding to UMR cells (in words) ([3]; listed as mMMP-13): specifically and saturably; Bmax, high affinity site (collagenase-3 receptor; Scatchard analysis): 73.9 pmol/10^5 cells; Bmax, high affinity site (collagenase-3 receptor; computer analysis with the GraphPad InPlot program): 75 pmol/10^5 cells; Bmax, lower affinity site ([6]; Scatchard analysis): 660 pmol/10^5 cells; Bmax, lower affinity site ([6]; computer analysis): 834 pmol/10^5 cells
